Test results taken from article PMC3669024, “Pharmacological Characterization of a 5-HT1-Type Serotonin Receptor in the Red Flour Beetle, Tribolium castaneum” (PLoS ONE, 2013).
Entries after “also recorded” stand apart in the source; their conditions may differ. Where a name gives a salt, the structure may show the parent alone. Read-outs that look alike come from different tables or passages of the source.

What was measured:
[1] = target: T1, Trica5-HT1 (Tribolium castaneum, UniProt R9ULB8); experiment: Aequorin-luminescence assay, agonist activation of Trica5-HT1 in CHO-WTA11 cells (apoaequorin + Gα16); format: cell-based; conditions: for response at concentrations ≤100 µM: results not shown; for response at 100 µM agonist: Figure 3A; for agonist behaviour: dose-response 1 pM to 1 mM; for EC50 / logEC50 (mean ± SEM): receptor activation in CHO-WTA11 cells
Description: (§1) General binding studies were performed in Chinese hamster ovary (CHO) WTA11 cells stably coexpressing apoaequorin and the promiscuous Gα16. This allowed us to measure the pharmacology independent of the downstream signaling. CHO-PAM28 cells stably expressing apoaequorin, but not the promiscuous Gα16, and human embryonic kidney cells (HEK) 293 cells were used to measure downstream signaling via Ca^2+ and cAMP, respectively. CHO cell lines were provided by Prof. Marc Parmentier (University of Brussels, Belgium) and Dr. Michel Detheux (Euroscreen S.A., Belgium). HEK293 cells were a gift from Prof. Arnd Baumann (Research Centre Jülich, Germany.
(§2) Cells were cultured in vitro as monolayers at 37°C, 5% CO2 and high relative humidity, and subcultivated twice a week. For transfection of CHO cells, 2.5 ml Opti-MEM®I (Invitrogen), 5 µg plasmid DNA and 12.5 µl Plus^TMreagent (Invitrogen) were mixed, stored at room temperature for 5 min and next repleted with 30 µl Lipofectamine™LTX (Invitrogen). After 30 min incubation at room temperature, this transfection mixture was added dropwise to the cells together with 5 ml medium. HEK293 cells were cotransfected with receptor construct (4 µg) and CRE-luciferase construct (2 µg), consisting of the open reading frame of the reporter gene, luciferase, downstream of a multimerized cAMP-response-element (CRE6x), [39]. All transfections were performed in T75 flasks with a confluency of about 60 percent. Cells were grown overnight, after which 15 ml of medium was added for an additional overnight incubation period.
(§3) The transfected CHO cells were detached with phosphate buffered saline (PBS) containing 0.2% EDTA and collected in DMEM/F-12 (without phenol red, with L-glutamine and 10 mM HEPES) (Gibco). The amount of viable cells was determined using the NucleoCounter NC-100+TM (Chemometic). Cells were pelleted for 4 min at 800 rpm at room temperature and resuspended in BSA-medium (DMEM/F12 without phenol red, with L-glutamine and 10 mM HEPES, supplemented with 0.1% bovine serum albumin) to a concentration of 5×10^6 cells/ml. Coelenterazine H (Invitrogen) was added to a final concentration of 5 µM, and cells were gently shaken for 4 h at room temperature in the dark. After a 10-fold dilution in BSA-medium, cells were incubated another 30 min. The pharmacological ligands were dissolved in BSA-medium. For agonists, 50 µl containing the final ligand concentration was added to appropriate wells of a 96-well plate. For antagonists, 25 µl of the antagonist solution was supplemented with 25 µl of a 5-HT solution. Receptor activity was measured as the light emission after adding 50 µl of the cell suspension. Light emission was measured for 30 s using a Mithras LB940 (Berthold Technologies). Subsequently, cells were lysed with Triton X-100 (0.1% in BSA-medium) and light emission was recorded for another 8 s. BSA-medium was used as a negative control. Light emission from each well was calculated relative to the total response (ligand+Triton X-100) using the output file of Mikrowin2000 software (Mikrotek). Further analysis was done in Graphpad Prism 5.
In order to pharmacologically characterize Trica5-HT1, we used CHO-WTA11 cells stably expressing apoaequorin and the promiscuous Gα16 subunit. […] The dose-response relationship for 5-HT and these synthetic agonists was examined at concentrations ranging from 1 pM to 1 mM (Figure 3B). […] Since the efficacy achieved by any agonist depends on the number of receptors expressed, we measured a dose-response curve for 5-HT in every experiment and normalized all agonist effects to the maximum 5-HT response, set at 100% (Figure 3B).

[2] = target: T1, Trica5-HT1; experiment: Aequorin-luminescence assay, antagonist inhibition of 5-HT mediated activation of Trica5-HT1 in CHO-WTA11 cells; format: cell-based; conditions: for inhibition of 5-HT induced responses (words): antagonist 10 nM to 1 mM; for nature of inhibition: 5-HT dose-response in presence of different antagonist concentrations; for inhibition of activation by 100 nM 5-HT at high concentrations (≥1 mM): antagonist ≥1 mM; for IC50 / logIC50 (mean ± SEM): CHO-WTA11 cells
Description: as §1, §2, §3
Potential antagonists were tested by simultaneously applying 5-HT (100 nM) and a high dose of antagonist (100 µM) to Trica5-HT1 expressing cells (Figure 4A). In addition, the dose-dependence of the antagonistic effects were measured with antagonist concentrations ranging from 10 nM to 1 mM (Figure 4B). […] We used the Gaddum/Schild plot to compare the inhibitory potencies of the antagonists by their pA2 values (i.e. the […] of the concentration of antagonist that doubles the amount of 5-HT required for obtaining the same effect).

[3] = inhibition of 5-HT (100 nM) mediated activation, read-out: IC50
[4] = IC50, inhibition of 5-HT (100 nM) mediated activation
[5] = logIC50 (mean ± SEM), inhibition of 5-HT (100 nM) mediated activation, given as negative log values
[6] = inhibition of 5-HT (100 nM) mediated activation, given as negative log values

T1 sequence (R9ULB8 entry or part of it): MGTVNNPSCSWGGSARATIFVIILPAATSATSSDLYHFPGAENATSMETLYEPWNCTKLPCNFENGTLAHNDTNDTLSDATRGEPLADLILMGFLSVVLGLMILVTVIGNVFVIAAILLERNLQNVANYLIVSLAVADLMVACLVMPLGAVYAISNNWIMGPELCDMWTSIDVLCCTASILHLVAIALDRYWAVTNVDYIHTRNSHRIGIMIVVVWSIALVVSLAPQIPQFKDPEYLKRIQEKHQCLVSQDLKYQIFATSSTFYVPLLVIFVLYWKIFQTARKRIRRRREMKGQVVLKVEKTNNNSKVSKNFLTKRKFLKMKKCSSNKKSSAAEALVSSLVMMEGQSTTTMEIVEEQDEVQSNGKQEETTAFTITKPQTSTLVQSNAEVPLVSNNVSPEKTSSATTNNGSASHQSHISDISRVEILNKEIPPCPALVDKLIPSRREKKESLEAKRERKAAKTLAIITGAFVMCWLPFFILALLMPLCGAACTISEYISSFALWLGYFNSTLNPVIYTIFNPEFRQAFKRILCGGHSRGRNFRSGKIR

## NCCc1ccc(O)cc1 [tyramine, tyramine hydrochloride]
[1]; CHO-WTA11 cells
  response at concentrations ≤100 µM: did not generate any detectable responses

## CSc1ccc2c(c1)C(N1CCN(C)CC1)Cc1ccccc1S2 (stereo not drawn) [methiothepin, methiothepin mesylate]
[2]; 5-HT 100 nM
  inhibition of 5-HT induced responses (words): effective dose-dependent inhibition
[2]; 5-HT 100 nM, listed as Methiothepin
  inhibition of 5-HT induced responses (words): dose-dependent inhibition
[2]
  nature of inhibition: competitive antagonists
  inhibition of activation by 100 nM 5-HT at high concentrations (≥1 mM): completely inhibited
[2]; Gaddum/Schild plot, 5-HT dose-response in presence of 10 nM to 1 mM antagonist, read-out: pA2 (± SEM) (converted)
  Kb: 0.676 µM
[2]; inhibition of 5-HT (100 nM) mediated activation, given as negative log values, read-out: logIC50 (mean ± SEM) (converted)
  IC50: 16.2 µM
[2]; [3]
  IC50: 16.4 µM

## COc1ccc2[nH]cc(CCN)c2c1 [5-MT, 5-methoxytryptamine]
[1]; CHO-WTA11 cells
  response at 100 µM agonist: Significant responses
  agonist behaviour: partial agonists
[1]; given as negative log values, read-out: logEC50 (mean ± SEM) (converted)
  EC50: 91.2 µM
[1]; read-out: EC50
  EC50: 91.8 µM

## CC[C@@H](CO)NC(=O)[C@@H]1C=C2c3cccc4c3c(cn4C)C[C@H]2N(C)C1 [methysergide, methysergide maleate]
[2]; 5-HT 100 nM
  inhibition of 5-HT induced responses (words): effective dose-dependent inhibition
[2]
  nature of inhibition: competitive antagonists
  inhibition of activation by 100 nM 5-HT at high concentrations (≥1 mM): completely inhibited
[2]; [4]
  IC50: 34 µM
[2]; [5]
  IC50: 33.9 µM

## COc1cc2nc(N3CCN(C(=O)c4ccco4)CC3)nc(N)c2cc1OC [prazosin, prazosin hydrochloride]
[2]; 5-HT 100 nM
  inhibition of 5-HT induced responses (words): effective dose-dependent inhibition
[2]
  nature of inhibition: competitive antagonists
  inhibition of activation by 100 nM 5-HT at high concentrations (≥1 mM): completely inhibited
[2]; [4]
  IC50: 1.39 µM
[2]; [5]
  IC50: 1.38 µM

## NCC(O)c1ccc(O)cc1 (racemic) [octopamine, DL-octopamine hydrochloride]
[1]; CHO-WTA11 cells
  response at concentrations ≤100 µM: did not generate any detectable responses

## Cl.NCCc1ccc(O)c(O)c1.NCCc1ccc(O)c(O)c1 [dopamine, 3-hydroxytyramine (dopamine) hydrochloride]
[1]; CHO-WTA11 cells
  response at concentrations ≤100 µM: did not generate any detectable responses

## CC1CCN(CC[C@H]2CCCN2S(=O)(=O)c2cccc(O)c2)CC1.Cl [SB-269970, SB-269970 hydrochloride]
[2]; 5-HT 100 nM
  inhibition of 5-HT induced responses (words): Moderate inhibition; also recorded: more effective inhibition
[2]; [6]
  logIC50 (mean ± SEM): −3.69±0.25
[2]; [3]
  IC50: 205 µM

## CC(N)Cc1c[nH]c2ccc(O)cc12.O=C(O)/C=C\C(=O)O (stereo not drawn) [αm-5-HT, α-methylserotonin maleate]
[1]; CHO-WTA11 cells
  response at 100 µM agonist: Significant responses
[1]; EC50 compared with 5-HT, CHO-WTA11 cells
  fold less potent than 5-HT: more than 100 fold
[1]; given as negative log values
  logEC50 (mean ± SEM): −4.97±0.18
[1]; read-out: EC50
  EC50: 10.7 µM

## COC(=O)[C@@H]1[C@H]2C[C@H]3c4[nH]c5ccccc5c4CCN3C[C@@H]2CC[C@@H]1O [yohimbin, yohimbine hydrochloride]
[2]; 5-HT 100 nM, even at concentrations up to 100 µM
  inhibition: about 30%

## CC(C)(C)[C@]1(O)CCN2C[C@H]3c4ccccc4CCc4cccc(c43)[C@@H]2C1 [butaclamol, (+)-butaclamol hydrochloride]
[2]; 100 µM, with 5-HT 100 nM
  agonistic effects at high concentration: some agonistic effects
[2]; 5-HT 100 nM
  inhibition of 5-HT induced responses (words): no detectable inhibition
[2]; [5]
  IC50: 204 µM

## NCCc1c[nH]c2ccc(C(N)=O)cc12.O=C(O)/C=C\C(=O)O [5-CT, 5-carboxamidotryptamine maleate]
[1]; CHO-WTA11 cells
  response at 100 µM agonist: Significant responses
  agonist behaviour: partial agonists
[1]; given as negative log values
  logEC50 (mean ± SEM): −4.61±0.17
[1]; read-out: EC50
  EC50: 24.7 µM

## O=C(c1ccc(F)cc1)C1CCN(CCn2c(=O)[nH]c3ccccc3c2=O)CC1 [ketanserin, ketanserin (+)-tartrate]
[2]; 5-HT 100 nM
  inhibition of 5-HT induced responses (words): no detectable inhibition
[2]; inhibition of 5-HT (100 nM) mediated activation
  IC50: no inhibition
[2]; [6]
  logIC50 (mean ± SEM): no inhibition
